Test results taken from patent publication US20230365590A1, “BIPHENYL COMPOUND AS IMMUNOMODULATOR, PREPARATION METHOD THEREFOR AND APPLICATION THEREOF” (SHENZHEN CHIPSCREEN BIOSCIENCES CO., LTD., priority 2020, published 2023).

Columns and labels:
[1] = Repeated-dosing pharmacokinetics test; format: in vivo, B-hPD-1/hPD-L1 humanized female mice; conditions: female, B-hPD-1/hPD-L1 (humanized), mouse, po; humanized mice, 50 mg/kg by gavage once a day for 12 days, plasma on day 12
Experimental: 24 6-week old B-hPD-1/hPD-L1 humanized female mice (purchased from Biocytogen (Jiangsu) Gene Biotechnology Co., Ltd.) were taken and the test compound was dissolved in a solvent containing 5% DMSO, 60% PEG400 and 35% purified water. The compound I-6 and three control molecules, Example 17, Compound 14 (INCB086550) and the aforementioned Example 180 were dosed. The compound was administered by gavage once a day in a dose of 50 mg/kg for 12 consecutive days, and blood was alternately collected through fundus vein plexus on day 12 of administration. The time points for blood collection were 15 min, 30 min, 1 h, 2 h, 4 h, 8 h, 24 h, 32 h and 48 h. About 0.1 mL of blood was collected and centrifuged in a centrifuge tube (heparin sodium for anticoagulation) at 5000 rpm for 5 min to separate plasma, and then frozen at −20° C. for testing. The concentration of the compound in the plasma was determined by liquid chromatography-mass spectrometry (LC-MS/MS). The pharmacokinetic parameters were calculated using Phoenix WinNonlin 7.0 based on the average blood concentration data at different time points.

[2] = Single-dosing pharmacokinetics test; format: in vivo, B-hPD-1/hPD-L1 female mice; conditions: female, B-hPD-1/hPD-L1 (humanized), mouse, po; humanized mice, single dose of 100 mg/kg by gavage, plasma
Experimental: 24 6-week old B-hPD-1/hPD-L1 female mice (purchased from Biocytogen (Jiangsu) Gene Biotechnology Co., Ltd.) were taken and the test compound was dissolved in a solvent containing 5% DMSO, 60% PEG400 and 35% purified water. The compound I-6 and three control molecules, Example 17, Compound 14 (INCB086550) and Example 180 were dosed. The compound was administered by gavage in a single dose of 100 mg/kg and blood was collected through fundus vein plexus after administration. The time points for blood collection were 15 min, 30 min, 1 h, 2 h, 4 h, 8 h, 24 h, 32 h and 48 h. About 0.1 mL of blood was collected and centrifuged in a centrifuge tube (heparin sodium anticoagulation) at 5000 rpm for 5 min to separate plasma, and then frozen at −20° C. for testing. After the plasma sample was treated, the concentration of the compound in the plasma was determined by liquid chromatography-mass spectrometry (LC-MS/MS). The pharmacokinetic parameters were calculated using Phoenix WinNonlin 7.0 based on the average blood concentration data at different time points.

[3] = target: CD80/PD-L1 binding (recombinant human His-CD80 protein and PD-L1-Fc fusion protein) (Homo sapiens (Human), UniProt Q9NZQ7); experiment: In vitro inhibitory activity against CD80/PD-L1 binding (HTRF); conditions: read-out: IC50 for inhibiting CD80/PD-L1 binding in vitro
CD80/PD-L1 binding (recombinant human His-CD80 protein and PD-L1-Fc fusion protein), sequence (Q9NZQ7 19-239): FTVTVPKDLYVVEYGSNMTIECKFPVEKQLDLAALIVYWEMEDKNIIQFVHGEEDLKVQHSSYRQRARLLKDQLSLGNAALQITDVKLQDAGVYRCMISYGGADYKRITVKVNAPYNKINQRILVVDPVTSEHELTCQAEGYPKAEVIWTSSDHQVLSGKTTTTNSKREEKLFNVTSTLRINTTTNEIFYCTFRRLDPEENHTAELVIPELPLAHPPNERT
From the text: In addition to PD-1, PD-L1 can also play an immune inhibition role by binding to CD80. Similarly, in vitro CD80/PD-L1 binding or binding inhibition test can also be conducted by homogeneous time-resolved fluorescence (HTRF). When the anti-hFc-Eu^3+ antibody and the anti-His-XL665 antibody are used to bind to the hFC tag fused to PD-L1 and the His tag fused to CD80 respectively, and after excitation with 320 nm laser, energy can be transferred from Eu element to XL665 fluorescein due to the binding of PD-L1 and CD80 to excite the XL665 fluorescein to emit light. When an inhibitor for inhibiting interaction of PD-L1 and CD80 is added, the binding of PD-L1 and CD80 is destroyed, causing a long distance between Eu and XL665. As a result, the energy cannot be transferred, and the XL665 fluorescein will not be excited.
The recombinant human CD80 protein with His tag (His-CD80 protein, Cat #: 10698-H08H-100) and the recombinant human PD-L1-Fc fusion protein (PD-L1-Fc fusion protein, Cat #: 10084-H02H-100) were purchased from Sino Biological Inc., anti-hFc-Eu^3+ antibody and anti-His-XL665 antibody were purchased from Cisbio, and other related reagents such as a diluent buffer (Diluent buffer 5 (Cat #: 62DL5DDC) and a detection buffer (PPI-European detection buffer, Cat #: 61DB9RDF) were purchased from Cisbio. Fluorescence detector Tecan (Spark 10M) was purchased from Tecan Company in Switzerland.
The experiment process was carried out according to the flow required in the operating manual of the test reagent (Invitrogen). The process was as follows: • (1) Experiment preparation: A test compound was diluted to different concentration gradients with the dilution buffer (the highest final concentration in a 20 μL final reaction system was 10 μM). The His-CD80 protein was diluted to 800 nM (the final concentration in the 20 final reaction system was 100 nM). The PD-L1-Fc fusion protein was diluted to 16 nM (the final concentration was 2 nM). The anti-His-XL665 antibody and the anti-hFc-Eu^3+antibody were diluted 20 times and 100 times respectively with the detection buffer according to reagent requirements. • (2) First, 5 μL of the test compound, 2.5 μL of the His-CD80 fusion protein and 2.5 μL of the […] fusion protein solution were well mixed and incubated at room temperature for 15 min; then, 5 μL of the anti-His-XL665 antibody and 5 μL of the anti-hFc-Eu^3+antibody were added to the system and further incubated for 3 h before test. • (3) During the test reaction, control groups were set, including a 0% inhibitory positive control without adding the test compound and a 100% inhibitory negative control without adding the CD80 protein. All tests were conducted by use of multiple holes. • (4) The fluorescence detector Tecan (Spark 10M) was used to detect the fluorescence signal of each hole. The excitation wavelength was 320 nm, and the emission wavelengths for detection were 620 nm and 665 nm, respectively. The strength of CD80/PD-L1 binding refers to a fluorescence signal ratio Em665/Em620. • (5) Calculation formula of binding inhibition rate of test compound: Inhibition rate (%)=[1−(fluorescence signal ratio of detected hole−fluorescence signal ratio of 100% inhibition negative control)]/(fluorescence signal ratio of 0% inhibition positive control — fluorescence signal ratio of 100% inhibition negative control)×100%. The 50% inhibition concentration (IC50) was calculated after the CD80/PD-L1 binding inhibition rates of the test compound with different concentration gradients were calculated respectively.

Compound	AUC(0-t) [1] [ng·h/mL]	MRT [1] [h]	half-life [1] [h]	AUC(0-t) [2] [ng·h/mL]	MRT [2] [h]	half-life [2] [h]	IC50 [3] [nM]
COCC12CCC(CCN3CCc4c(nc(C(=O)Nc5cccc(-c6cccc(NC(=O)c7nc8c(n7C)CCN(CCC79CCC(C(=O)O)(CC7)C9)C8)c6Cl)c5Cl)n4C)C3)(CC1)C2 [Compound I-6, 4-(2-(2-((2,2′-dichloro-3′-(5-(2-(4-(methoxymethyl)bicyclo[2.2.1]heptan-1-yl)ethyl)-1-methyl-4,5,6,7-tetrahydro-1H-imidazo[4,5-c]pyridine-2-carboxamido)-[1, 1′-biphenyl]-3-yl)carbamoyl)-1-methyl-1,4,6,7-tetrahydro-5H-imidazo[4,5-c]pyridin-5-yl)ethyl)bicyclo[2.2.1]heptane-1-carboxylic acid]	151000	12	9.4	207000	10.9	9.3	0.86
Cn1c(C(=O)Nc2cccc(-c3cccc(NC(=O)c4nc5c(n4C)CCN(CC46CCC(C(=O)O)(CC4)C6)C5)c3Cl)c2Cl)nc2c1CCN(CCO)C2 [Example 180]	27800	4.2	3.3	45400	4.7	3.5	5.53
